# According to ChEMBL document CHEMBL5137025, “Tuberculosis Drug Discovery: Challenges and New Horizons” (J Med Chem, 2022):
# Key:
# [1] = test system: Mycobacterium tuberculosis; experiment: Antibacterial activity against Mycobacterium tuberculosis assessed as reduction in resistance generation frequency; type: functional
# [2] = test system: Mycobacterium tuberculosis; experiment: Antibacterial activity against Ethionamide-resistant Mycobacterium tuberculosis Beijing strain in acute Mtb infection BALB/c mouse model assessed as reduction in log10 CFU in lungs at 50 mg/kg, po for 3 weeks in presence of Ethionamide; type: functional
# [3] = test system: Mycobacterium tuberculosis; experiment: Antibacterial activity against Mycobacterium tuberculosis Erdman (TMCC 107) in Mtb infection C3HeB/FeJ mouse model assessed as reduction in resistance generation frequency administered for 8 weeks relative to control; type: functional; design: scale not given: the % may be the effect or the level left
# [4] = test system: Mycobacterium tuberculosis; experiment: Antibacterial activity against EMB-resistant Mycobacterium tuberculosis assessed as inhibition of bacterial growth; type: functional
# [5] = test system: Mycobacterium tuberculosis; experiment: microbe, parasite or virus in culture
# [6] = test system: Mycobacterium tuberculosis; experiment: microbe, parasite or virus in culture; remark: listed apart in the source
# [7] = test system: Mycobacterium tuberculosis; experiment: Antibacterial activity against multidrug-resistant Mycobacterium tuberculosis clinical isolate assessed as inhibition of bacterial growth in presence of SMARt-420; type: functional
# [8] = test system: Mycobacterium tuberculosis; experiment: Antibacterial activity against Mycobacterium tuberculosis Erdman (TMCC 107) assessed as reduction in resistance generation frequency; type: functional
# [9] = test system: Mycobacterium tuberculosis; experiment: Antibacterial activity against extensively drug-resistant Mycobacterium tuberculosis clinical isolate assessed as inhibition of bacterial growth in presence of SMARt-420; type: functional
structure (smiles),measurement,setting,value
Cc1ccn(C(C)c2nnc(Nc3ccn(Cc4c(F)cccc4Cl)n3)s2)n1 (stereo not drawn),Activity,[1],4 10^-8No_unit
O=C(CCC(F)(F)F)N1CCC2(CC1)CC(c1ccccc1)=NO2,Activity,[2],4 log10CFU
NNC(=O)c1ccncc1 [ISONIAZID],Activity,[3],29%
same,Activity,[1],4 10^-5No_unit
Cc1n[nH]c2ccc(NS(=O)(=O)CCCCF)cc12,Activity,[1],6 10^-8No_unit
CC(C)=CCC/C(C)=C/CNCCNC1C2CC3CC(C2)CC1C3 (stereo not drawn) [SQ109],MIC,[4],2.4 µM
CCNC(=N)NC(=O)Nc1c(CC)cccc1CC,Activity,[1],>1.5 log10CFU
CCc1cc(C(N)=S)ccn1 [ETHIONAMIDE],MIC,[5],48 µM
same,MIC,[6],48 µM
CCS(=O)(=O)N1N=Cc2ccc(Oc3ccc(C(F)(F)F)cc3/C=N/O)cc2B1O,MIC,[7],0.15 µM
same,Activity,[8],4 10^-7No_unit
same,Activity,[3],0.04%
same,MIC,[9],0.15 µM
